{"source": "patent US7871631B2", "about": "“Methods of inhibiting the lowering of antihuman TNF-α antibody” (Ajinomoto Co., Inc., priority 2004, dated 2011)", "key": {"[1]": {"test_system": "patient with small intestine/large intestine type Crohn's disease", "test": "Clinical case: repeated administration of Infliximab under enteral administration of ELENTAL, Crohn's disease activity index (CDAI) and ulcer findings", "assay_type": "in vivo, human", "conditions": "for CDAI two weeks later: ELENTAL continued", "protocol": "A patient is a person, and they are the patient with small intestine/large intestine type Crohn's disease that began. By August 2002, Crohn's disease repeatedly recurred and they were hospitalized three times.\nIn July 2002, since Crohn's disease recurred again accompanied by stomachache, diarrhea and fever, 5 mg/kg of Infliximab (REMICADE® (trademark) 100 for drip infusion) under the enteral administration of 1200 kcal of ELENTAL® (trademark) was administered to the patient. The clinical activity index of Crohn's disease before the administration was 186 (150 or higher fall into the active stage). However, the index was lowered to 67 two weeks after the administration. During the period, an open longitudinal ulcer(s) seen in the transverse colon and sigmoid colon was cicatrized. After that, thought the patient was treated with the home enteral nutritional therapy, the symptoms recurred in February 2003 and CDAI increased up to 230. Continuing the enteral administration of ELENTAL® (trademark), Infliximab (5 mg/kg) was administered for the second time. Then, CDAI was lowered again to 63 two weeks later. […] Therefore, Infliximab (5 mg/kg) was administered for the third time, and CDAI was lowered to 80 two weeks later. Before and after the administration for the third time, it was confirmed that an open ulcer(s) of the sigmoid colon was cicatrized. Similarly, though CDAI increased in the 50th week, 68th week and 83rd week from the first administration, CDAI of 147 to 275 decreased to 50 to 80 […] by the fourth, fifth and sixth time administrations of Infliximab. During that time, administration of ELENTAL was continued.\nUsually, the repeated administration of Infliximab promotes production of antibody and, therefore, its effect weakens in the repeated administration."}, "[2]": {"test_system": "patient with small intestine/large intestine type Crohn's disease"}}, "data": [{"substance": "Infliximab", "values": [{"measurement": "CDAI at recurrence of symptoms", "setting": "[1]; February 2003, after first Infliximab administration, under home enteral nutritional therapy, before second administration", "value": 230}, {"measurement": "open ulcer(s) of the sigmoid colon", "setting": "[1]; before and after the third administration of Infliximab 5 mg/kg under ELENTAL", "value": "cicatrized"}, {"measurement": "open longitudinal ulcer(s) in the transverse colon and sigmoid colon", "setting": "[1]; during the two weeks after first administration of Infliximab 5 mg/kg under ELENTAL", "value": "cicatrized"}, {"measurement": "clinical activity index of Crohn's disease (CDAI) two weeks after the administration", "setting": "[1]; first administration, Infliximab 5 mg/kg drip infusion under enteral ELENTAL 1200 kcal, index before administration 186 (150 or higher = active stage)", "value": 67}, {"measurement": "CDAI two weeks later", "setting": "[1]; second administration of Infliximab 5 mg/kg, CDAI before 230", "value": 63}, {"measurement": "CDAI two weeks later", "setting": "[1]; third administration of Infliximab 5 mg/kg, CDAI before 250", "value": 80}, {"measurement": "CDAI increase under administration of ELENTAL", "setting": "[1]; two months after second administration, before third administration", "value": 250}, {"measurement": "tuberculosis bacterium infection", "setting": "[2]; first to sixth administration of Infliximab with ELENTAL", "value": "not seen"}, {"measurement": "infection in organs of respiration or in a urinary tract", "setting": "[2]; human, in vivo", "value": "no finding of indication of infection"}]}]}
